From publication PMC4818977 (ChemMedChem, 2016)
Where two headings read alike, the source gives them in different places.

Experiments:
FimH = FimH (Escherichia coli, UniProt Q1R2J4); type: cell-based, uropathogenic E. coli (UPEC) strain UTI89; conditions: for HAI: hemagglutination inhibition titer (EC>90, Figure 5 legend)
UPEC biofilm formation = test: biofilm prevention assay; type: cell-based, uropathogenic E. coli (UPEC) strain UTI89; conditions: read-out: Biofilm IC50
FimH lectin domain = FimH lectin domain (Escherichia coli, UniProt P08191); set-up: species or system uropathogenic E. coli (UPEC); conditions: melting temperature of FimH lectin domain, relative binding strength
Sequence of FimH lectin domain (P08191 22-179): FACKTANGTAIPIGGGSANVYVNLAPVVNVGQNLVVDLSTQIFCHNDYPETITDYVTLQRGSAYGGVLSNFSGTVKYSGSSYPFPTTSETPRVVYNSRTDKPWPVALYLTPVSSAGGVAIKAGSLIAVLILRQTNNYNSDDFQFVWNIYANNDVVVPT

[1] = i.v./p.o. crossover PK study in rat; type: in vivo
[2] = in vivo mouse PK, urine mannoside concentration; conditions: mice, 50 mgkg^−1 oral gavage, 10% cyclodextrin, 1 h post-dosing
[3] = tested on: UTI89 chronically infected mice; test: murine model of chronic UTI; type: in vivo; conditions: 50 mgkg^−1 p.o., 10% cyclodextrin, 6 h post-dosing

COC(=O)c1cccc(-c2ccc(O[C@H]3O[C@H](CO)[C@@H](O)[C@H](O)[C@@H]3O)cc2)c1 [Compound 2]
HAI (FimH): 1.0 µM | IC50 (UPEC biofilm formation; biofilm prevention): 940 nM | DSF Tm (FimH lectin domain): 73.4 °C

Cc1cc(-c2ccc3cc[nH]c(=O)c3c2)ccc1O[C@H]1O[C@H](CO)[C@@H](O)[C@H](O)[C@@H]1O [Compound 22, 2-methyl-4-(1-oxo-1,2-dihydroisoquinolin-7-yl)phenyl α-D-mannopyranoside]
HAI (FimH): 0.031 µM | increase in activity in HA assay relative to 16 and 17, respectively (FimH; ortho-methyl matched pairs): fourfold | IC50 (UPEC biofilm formation; Escherichia coli): 130 nM | DSF Tm (FimH lectin domain): 75.5 °C | Rat F ([1]; 10 mgkg^−1 oral (p.o.) dose, 10% cyclodextrin formulation): 7.0% | Rat CL ([1]; calculated from a 10 mgkg^−1 oral (p.o.) dose, 10% cyclodextrin formulation): 408 mLmin^−1kg^−1 | half-life ([1]; rat, in vivo, po, 10 mgkg^−1): < 3 h | initial urine concentration [2]: elevated relative to 5 | additional drop in CFUs per bladder relative to 5, 7 (and 17b) [3]: 10 fold
